These results are taken from article PMC6010013, “Synthesis, physiochemical property and antimicrobial activity of novel quaternary ammonium salts” (Journal of Enzyme Inhibition and Medicinal Chemistry, 2017).

For data set [1], the system named is human normal liver (LO2) cell line. The experiment in a line: Cytotoxicity, MTT assay. The class given is cell-based. The note with it: LO2 cells, MTT, 24 h. Here is the method: (§1) These six series of antimicrobial compounds may be applied to daily or clinical disinfectants for unbroken skin and trauma, or agricultural fungicides alternatively. Thus, their cytotoxicity for skin or body tissues are crucial. In this study, the cytotoxicity of target compounds was evaluated for human immortalised epidermal (HaCat) and human normal liver (LO2) cell line using MTT assay. […] The IC50 values of 5a, 6a, 10a, 16a, 16 b were about more than 50 μg/mL for LO2 and HaCat.
(§2) Cytotoxicity Testing with MTT Method
(§3) Human immortalized epidermal cells (HaCat) line were cultured in Dulbecco’s modified Eagle’s medium containing 10% fetal bovine serum, 1% penicillin, and 1% streptomycin at 37°C in a 5% CO2/95% air incubator MCO-15AC (SANYO). Human normal liver cells (LO2) line were cultured in Roswell Park Memorial Institute medium containing 10% fetal bovine serum, 1% penicillin, and 1% streptomycin at 37°C in a 5% CO2/95% air incubator MCO-15AC (SANYO). HaCat or LO2 cells in 96-well plate were adjusted to 1.0 × 10^5 cells mL-1 and cells were passed and cell supernatant was pour out before plating on glass slide at 37°C, 5% CO2 for 24 h. Cells were pretreated with 100 μL QAS for 24 h and cell supernatant with QAS was pour out and washed with PBS buffer system. Then, the cells were treated with the MTT solution (MTT, 3-(4,5-dimethythiazol-2-yl)-2,5-diphenyl-tetrazolium bromide, 20 μL, 5 mg/mL) for 4 h. The dark blue formazan crystal formed in the intact cells was solubilized with dimethyl sulfoxide, and absorbance at 570 nm was measured with a microplate reader (Multiskan MK3-Thermo Labsystems, USA). The results were expressed as percentage of the control value from the normal cells without treatments of QAS. […]
(Tetrazolium assays rely on reduction of a dye to a coloured formazan, in cell work by metabolically active cells.)

Data set [2] deals with human immortalised epidermal (HaCat) cell line. The experiment in a line: Cytotoxicity, MTT assay. The class given is cell-based. The following applies: HaCat cells, MTT, 24 h. Here is the method: as §1, §2, §3
In the next data set the test system is β-H-tococcus. The experiment in a line: MBC, agar plating of dilutions without growth. The class given is cell-based. The note with it: 99.9% bactericidal, read-out: Minimal bactericidal concentration (MBC). The source says: In this paper, antimicrobial activities of 24 QASs were detected by quantitative tests. […] Benzalkonium chloride (BZK) and chlorhexidine acetate (CA) was selected as positive controls. Representative compound POT-C12QAS (2) which synthesised and evaluated in previous work was also taken as a reference compound in MIC, MBC and cytotoxicity tests. […]
agriculture were used as target pathogens in this study, including three strains of Gram-positive bacteria (S. Aureus, α-H-tococcus, β-H-tococcus), three strains of Gram-negative bacteria (E. coli, P. aeruginosa, Proteus vulgaris) and four strains of fungi (Canidia albicans, Cytospora mandshurica, Physalospora piricola, Aspergillus niger). The antimicrobial tests were assayed, according to standard CLSI methods for antimicrobial dilution susceptibility tests to measure the minimum inhibitory concentration (MIC) and minimum bactericidal concentration (MBC)2.
A broth tube dilution method was followed to determine the MIC values for all the screened compounds against the micro-organisms, and for comparison benzalkonium chloride (BZK) and chlorhexidine acetate (CA) was used as a reference. For sample preparation, each of the test compounds and reference were dissolved in DMSO or sterile water at a concentration of 1600 μg/mL, and further dilutions of the compounds and reference in culture medium MHB (Muller-Hinton Broth) were prepared at the required quantities of 400, 200, 100 etc., down to 0.39 μg/mL. Bacterial strains and fungal strains were maintained on MHA (Muller-Hinton Agar) medium at 37℃ or 28 ℃ for 12 h or 72h, respectively. The microbial inocula were prepared by suspension in 10 mL of culture medium for colonies from culture on MHA. The cell density of each inoculum was adjusted in culture medium of a 0.5 McFarland standard (1-2×10^8 CFU/mL). The final amount applied was 10^5 CFU/mL for bacteria and fungi. The microbial inocula were added to the twofold diluted samples. One growth control tube was prepared […] the addition of the compound and one blank tube was prepared without the addition of the microorganism. MIC values were read after incubation at 37℃ or 28 ℃ for bacterial and fungal strains, respectively. […]
was placed on agar plates in triplicate, and incubated at 37℃ or 28 ℃ for 12 h or 72h. The number of colonies on each plate was read, and the MBC was determined as the lowest concentration that achieved a 99.9% bactericidal in the agar plate.

The next data set is described as follows: Haemolysis assay. The following applies: human red blood cells (erythrocyte suspension), 1 h at 37 ℃, read-out: Haemolysis rate; for hemolysis at 1 h, 12.5 μg/mL: 12.50 μg/mL. The format is cell-based. As for the experimental part: The surfactant may be absorbed and penetrate to the cell membrane, where it makes osmotic phenomena by altering the permeability of membrane, which in turn causes the cellular lysis. Haemolysis assay gives quantitative estimation about haemoglobin release when red blood cells are treated with QASs. Haemolytic assay of QASs at different concentration was carried out in Table 4. […] For 5a-b, 6a-b, 10a-c, 13a-b, and 16a-d, their safe concentration can more than 100 μg/mL. Compared with BZK and CA, all QASs were safe to be used when they circulated into the blood in low concentration. […]
The human blood from healthy individual was collected in a tube containing heparin, and the blood was centrifuged at 1500 rpm for 3 min. The […] (Erythrocyte) was collected and plasma was discarded and further washed five times with sterile normal saline solution. Then the cells were diluted to 0.2% of their volume with normal saline solution. 2 mL of the diluted red blood cells suspension was mixed with (a) 2 mL of normal salinesolution as a negative control; (b) 2 mL of distilled water as a positive control; (c) 2 mL of QAS solution which were dispersed into normal saline solution at the different concentrations ranging from 3.125 to 400 μg/mL. Then the mixtures were shaken well and incubated for 1 h at 37 ℃. Finally, the mixtures were centrifuged for 5min at 2000 r/min and the absorbances of supernatant at 540 nm was measured by a microplate reader (Multiskan MK3-Thermo Labsystems, USA). The hemolysis ratio was calculated as follows: The hemolysis ratio(%) = (OD Sample−OD Negative)/(OD Positive −OD Negative) ×100%. The hemolysis evaluation of QASs was performed in triplicate and results were expressed as the mean ± SD.

Molecules are shown by their SMILES.

On to `C[N+](CCO)(CCO)CCCCCCCCSc1nnc(-c2ccc(C(F)(F)F)cc2)o1` [Compound 6b], for which the “Cytotoxicity IC50” value in data set [1] worked out at 38.72 ± 2.92 µg/mL. Also, the “Cytotoxicity IC50” value in data set [2] was 32.57 ± 2.69 µg/mL. Further, the MBC in the data set on β-H-tococcus is 12.5 µg/mL. Also, in the data set “Haemolysis assay”, the hemolysis at 1 h, 6.25 μg/mL stood at 0.18 ± 0.06%; the hemolysis at 1 h, 12.5 μg/mL stood at 0.51 ± 0.08%; the hemolysis at 1 h, 25 μg/mL is 0.43 ± 0.1%; the hemolysis at 1 h, 50 μg/mL was 0.7 ± 0.18%. In addition, in the data set “Haemolysis assay”, the hemolysis at 1 h, 100 μg/mL is 4.61 ± 0.31%; the hemolysis at 1 h, 200 μg/mL was 26.2 ± 3.68%; the hemolysis at 1 h, 400 μg/mL is 80.4 ± 4.98%.

Turning to `C[N+](CCO)(CCO)CCCCCCCCCCSc1nnc(-c2ccc(F)cc2)o1` [Compound 5c], in the data set on β-H-tococcus, the MBC was 12.5 µg/mL. In “Haemolysis assay”, the hemolysis at 1 h, 6.25 μg/mL was 0.43 ± 0.16%; the hemolysis at 1 h, 12.5 μg/mL was 0.75 ± 0.19%; the hemolysis at 1 h, 25 μg/mL was 2.31 ± 0.67%; the hemolysis at 1 h, 50 μg/mL came to 4.89 ± 0.53%. Besides, in “Haemolysis assay”, the hemolysis at 1 h, 100 μg/mL is 33.1 ± 4.87%; the hemolysis at 1 h, 200 μg/mL turned out to be 52.3 ± 6.34%; the hemolysis at 1 h, 400 μg/mL is 67.2 ± 5.89%.

As to `C[N+](CCO)(CCO)CCCCCCCCCCCCSc1nnc(-c2ccc(F)cc2)o1` [Compound 5d], in the data set with β-H-tococcus, the MBC turned out to be 6.25 µg/mL. Further, in the data set “Haemolysis assay”, the hemolysis at 1 h, 6.25 μg/mL was 0.49 ± 0.12%; the hemolysis at 1 h, 12.5 μg/mL was 0.87 ± 0.27%; the hemolysis at 1 h, 25 μg/mL was 2.43 ± 0.82%; the hemolysis at 1 h, 50 μg/mL came to 4.81 ± 0.74%. In addition, in “Haemolysis assay”, the hemolysis at 1 h, 100 μg/mL is 32.4 ± 6.78%; the hemolysis at 1 h, 200 μg/mL worked out at 66.7 ± 5.21%; the hemolysis at 1 h, 400 μg/mL came to 66.9 ± 4.12%.

`C[N+](CCO)(CCO)CCCCCCCCCCSc1nnc(-c2ccc(C(F)(F)F)cc2)o1.[Br-]` [Compound 6c] displayed a melting point of 102 to 103 °C. In the data set on β-H-tococcus, the MBC is 6.25 µg/mL. Also, in the data set “Haemolysis assay”, the hemolysis at 1 h, 6.25 μg/mL amounted to 0.57 ± 0.15%; the hemolysis at 1 h, 12.5 μg/mL worked out at 0.42 ± 0.13%; the hemolysis at 1 h, 25 μg/mL was 0.67 ± 0.13%; the hemolysis at 1 h, 50 μg/mL is 3.56 ± 1.32%. In “Haemolysis assay”, the hemolysis at 1 h, 100 μg/mL was found to be 35.8 ± 5.1%; the hemolysis at 1 h, 200 μg/mL turned out to be 82.5 ± 6.12%; the hemolysis at 1 h, 400 μg/mL was 89.4 ± 4.35%.

On to `C[N+](CCO)(CCO)CCCCCCSc1nnc(-c2ccc(C(F)(F)F)cc2)o1` [Compound 6a], for which, in the data set on β-H-tococcus, the MBC came to 25 µg/mL. Also, in the data set “Haemolysis assay”, the hemolysis at 1 h, 6.25 μg/mL came out at 0.15 ± 0.08%; the hemolysis at 1 h, 12.5 μg/mL was 0.35 ± 0.17%; the hemolysis at 1 h, 25 μg/mL came out at 0.51 ± 0.19%; the hemolysis at 1 h, 50 μg/mL stood at 0.99 ± 0.12%. Further, in the data set “Haemolysis assay”, the hemolysis at 1 h, 100 μg/mL was determined as 3.38 ± 1.23%; the hemolysis at 1 h, 200 μg/mL was 7.09 ± 2.89%; the hemolysis at 1 h, 400 μg/mL was 41 ± 5.32%.

Regarding `C[N+](CCO)(CCO)CCCCCCCCCCCCSc1nnc(-c2ccc(C(F)(F)F)cc2)o1.[Br-]` [Compound 6d], the melting point was 88 to 90 °C. In the data set on β-H-tococcus, the MBC turned out to be 3.12 µg/mL. Also, in the data set “Haemolysis assay”, the hemolysis at 1 h, 6.25 μg/mL was determined as 0.64 ± 0.19%; the hemolysis at 1 h, 12.5 μg/mL is 1.05 ± 0.28%; the hemolysis at 1 h, 25 μg/mL worked out at 2.02 ± 3.45%; the hemolysis at 1 h, 50 μg/mL turned out to be 4.85 ± 4.65%. Moreover, in the data set “Haemolysis assay”, the hemolysis at 1 h, 100 μg/mL was 36.4 ± 6.35%; the hemolysis at 1 h, 200 μg/mL stood at 85.6 ± 4.86%; the hemolysis at 1 h, 400 μg/mL is 92.5 ± 3.87%.

For `C[N+](CCO)(CCO)CCCCCCSc1nnc(-c2ccc(F)cc2)o1` [Compound 5a], in the data set with β-H-tococcus, the MBC was 25 µg/mL. In addition, in “Haemolysis assay”, the hemolysis at 1 h, 6.25 μg/mL was 0.21 ± 0.03%; the hemolysis at 1 h, 12.5 μg/mL amounted to 0.53 ± 0.15%; the hemolysis at 1 h, 25 μg/mL came out at 1.37 ± 0.87%; the hemolysis at 1 h, 50 μg/mL was 1.54 ± 0.96%. In “Haemolysis assay”, the hemolysis at 1 h, 100 μg/mL was 3.25 ± 1.23%; the hemolysis at 1 h, 200 μg/mL was determined as 6.21 ± 3.21%; the hemolysis at 1 h, 400 μg/mL stood at 35.6 ± 4.87%.

For `[H]/N=C(\N/C(=N/[H])NCCCCCCNC(=N)NC(=N)Nc1ccc(Cl)cc1)Nc1ccc(Cl)cc1` [CA, chlorhexidine acetate, reference compound], the MBC with β-H-tococcus was 3.12 µg/mL. In the data set “Haemolysis assay”, the hemolysis at 1 h, 6.25 μg/mL was 0.86 ± 0.28%; the hemolysis at 1 h, 12.5 μg/mL was found to be 2.51 ± 0.87%; the hemolysis at 1 h, 25 μg/mL was determined as 5.29 ± 1.22%; the hemolysis at 1 h, 50 μg/mL turned out to be 37 ± 3.78%. In addition, in “Haemolysis assay”, the hemolysis at 1 h, 100 μg/mL was determined as 62.2 ± 3.53%; the hemolysis at 1 h, 200 μg/mL came to 86 ± 3.82%; the hemolysis at 1 h, 400 μg/mL was found to be 95.7 ± 3.54%.

Take `C[N+](CCO)(CCO)CCCCCCCCCCCCSc1nnc(-c2ccccc2)o1` [Compound 2, reference compound]: the MBC in the data set with β-H-tococcus worked out at 6.25 µg/mL. In the data set “Haemolysis assay”, the hemolysis at 1 h, 6.25 μg/mL is 0.18 ± 0.05%; the hemolysis at 1 h, 12.5 μg/mL amounted to 0.42 ± 0.13%; the hemolysis at 1 h, 25 μg/mL amounted to 0.93 ± 0.41%; the hemolysis at 1 h, 50 μg/mL amounted to 4.11 ± 0.89%. In “Haemolysis assay”, the hemolysis at 1 h, 100 μg/mL is 17.1 ± 2.34%; the hemolysis at 1 h, 200 μg/mL was determined as 82.8 ± 3.18%; the hemolysis at 1 h, 400 μg/mL was determined as 90.6 ± 4.23%.

On to `C[N+](CCO)(CCO)CCCCCCCCCCCCSc1nc2ccccc2s1` [Compound 13d], for which, in the data set with β-H-tococcus, the MBC is ~3.12 µg/mL. Besides, in the data set “Haemolysis assay”, the hemolysis at 1 h, 6.25 μg/mL stood at 0.56 ± 0.13%; the hemolysis at 1 h, 12.5 μg/mL was determined as 1.5 ± 0.72%; the hemolysis at 1 h, 25 μg/mL amounted to 3.98 ± 1.03%; the hemolysis at 1 h, 50 μg/mL came out at 11.2 ± 2.86%. For the same compound, in the data set “Haemolysis assay”, the hemolysis at 1 h, 100 μg/mL amounted to 48.6 ± 3.54%; the hemolysis at 1 h, 200 μg/mL amounted to 65.2 ± 3.91%; the hemolysis at 1 h, 400 μg/mL was determined as 83.7 ± 4.12%.

What is called melting point is the temperature of the solid-liquid transition.
